Measurements published in the NIST ThermoML archive (doi:10.1021/acs.jced.5b01075).

Assay: xn = mol fraction of the nth substance listed
Conditions: for viscosity: 100 kPa, Liquid, Concentric cylinders viscometry; for surface tension liquid-gas: 294.2 K, Pendant drop shape

C1CC[C@H]2CCCC[C@@H]2C1 [trans-decahydronaphthalene] + c1ccc2c(c1)CCCC2
viscosity [mPa·s]
Conditions	293.15 K	303.15 K	313.15 K	323.15 K	333.15 K	343.15 K	353.15 K	363.15 K	373.15 K
x2 = 0.1044	2.07	1.74	1.48	1.27	1.1	0.968	0.856	0.765	0.689
x2 = 0.2075	2.03	1.71	1.46	1.25	1.09	0.957	0.847	0.758	0.683
x2 = 0.3094	2.02	1.7	1.44	1.24	1.08	0.95	0.842	0.753	0.68
x2 = 0.4109	2	1.68	1.43	1.23	1.07	0.943	0.836	0.749	0.676
x2 = 0.5112	2.02	1.69	1.44	1.24	1.08	0.947	0.84	0.752	0.679
x2 = 0.6106	2.04	1.71	1.45	1.25	1.08	0.951	0.843	0.755	0.685
x2 = 0.7093	2.07	1.73	1.46	1.26	1.09	0.958	0.849	0.76	0.687
x2 = 0.807	2.11	1.75	1.48	1.27	1.1	0.968	0.858	0.768	0.694
x2 = 0.9039	2.17	1.8	1.51	1.29	1.12	0.982	0.87	0.778	0.703

Conditions	surface tension liquid-gas [mN/m]
x2 = 0.1044	30.5
x2 = 0.2075	31
x2 = 0.3094	31.4
x2 = 0.4109	32.1
x2 = 0.5112	32.3
x2 = 0.6106	32.9
x2 = 0.7093	33.6
x2 = 0.807	34.1
x2 = 0.9039	35
